Results from patent publication US6903125B2, “Tetrahydro-2H-thiopyran-4-carboxamide derivative” (Yamanouchi Pharmaceutical Co., Ltd., priority 2003, dated 2005).
Read-outs that look alike come from different tables or passages of the source.

Key:
HSV-1 (strain KOS) = experiment: Anti-HSV-1 activity assay (MTT, MRC-5 cells); format: cell-based; details: HSV-1 strain KOS in MRC-5 cells, 5 days culture, read-out: EC50 value (suppression of cellular death of MRC-5 cells via HSV-1 replication)
Procedure: 10,000 MRC-5 cells were inoculated and cultured in a 96-well microtiter plate, using the growth culture medium in 5% CO2 at 37° C. for 4 to 5 days until a monolayer was formed. After the cells were washed with the maintenance culture medium, 100 μl of the maintenance culture medium dissolving therein an appropriate concentration of a test reagent was added to each well. Immediately after the test drug was added, an HSV-1 (strain KOS) solution was inoculated at 50 TCID50 (50% tissue culture infectious dose)/100 μl. After the cells were cultured in 5% CO2 at 37° C. for 5 days, 20 μl of MTT solution [3-(4,5-dimethyl-2-thiazolyl)-2,5-diphenyl-2H-tetrazolium bromide; Sigma] (diluted with PBS to 7.5 mg/ml) was added to each well, for another 24-hour incubation. After the culture medium was discarded, 100 μl of a solvent (prepared by adding 10% (v/v) Triton X 100 and 0.4% hydrochloric acid to isopropanol) was added to each well, to solubilize the generated formazan. The absorbance at 540 nm or 690 nm was measured with a microplate reader. Based on the suppression ratio (%) of the cellular death of the MRC-5 cell via HSV-1 replication, the EC50 value of the test drug was calculated.

VZV (strain CaQu) = experiment: Anti-VZV activity assay (plaque reduction in HEF cells); format: cell-based, varicella zoster virus
Procedure: This experiment was carried out based on the method described by Shigeta S., The Journal of Infectious Diseases, 147, 3, 576-584 (1983). Briefly, 10,000 human embryonic fibroblast (HEF) cells were inoculated in a 96-well microtiter plate, using a growth culture medium [Eagle MEM (Nissui) supplemented with 10% (v/v) fetal bovine serum (FBS; Sigma)], for culturing in 5% CO2 at 37° C. for 4 days until a monolayer was formed. After the cells were washed with a maintenance culture medium (MEM supplemented with 2% FBS), VZV (strain CaQu) preliminarily diluted to 20 to 30 pfu/100 μl with the maintenance culture medium was inoculated at 100 μl/well. The plate was centrifuged at 2,000 rpm at ambient temperature for 20 minutes and was then incubated in 5% CO2 at 37° C. for 3 hours, for infection with VZV. After the plate was washed three times with the maintenance culture medium, 100 μl of a test drug diluted to an appropriate concentration with the maintenance culture medium was added to each well. After the cells were cultured in 5% CO2 at 37° C. for 3 to 4 days, 10% formalin/PBS was added at 100 μl/well to fix the cells for 2 to 3 hours. After discarding the fixing solution and culture supernatant and subsequently washing the plate with water, a staining solution (0.025% Crystal Violet) was added at 50 μl/well for staining for 2 to 3 minutes, and then, the plate was washed with water and dried at 37° C. Cellular death is induced in the HEF cells infected with VZV, so that plaques of the dead cells are formed in the monolayer of the HEF cells.

HSV-1 strain WT-51 = experiment: Cutaneously HSV-1-infected hairless mice model; format: in vivo, hairless mice [HR-1]; details: oral, methyl cellulose suspension, 10 mg/kg twice daily for 5 days; from AUC of mean composite disease score over 17 days
Procedure: Female hairless mice [HR-1, 7 weeks of age] were infected with a virus suspension containing HSV-1 strain WT-51 (1.5×10^4 PFU/15 μl) on the lateral side of the body, which had scratched with a needle, while anesthetized with diethyl ether, as previously described by H. Machida et al. [Antiviral Res., 1992, 17, 133-143]. Tested compounds were administered orally as a methyl cellulose suspension, except for compounds marked with asterisk which were dissolved in 20% Cremophor EL and 20% polyethylene glycol, starting at 3 hours after the infection, and then at a dose of 10 mg/kg twice daily for a period of 5 days. Hairless mice were inspected daily and disease severity was determined using the following criteria: • Score 0: no signs of infection. • Score 1: localized, barely perceptible small vesicles. • Score 2: slight vesicle spread. • Score 3: large patches of vesicles formed. • Score 4: zosteriform vesicles. • Score 5: large patches of ulcers formed. • Score 6: zosteriform with severe large ulcers. • Score 7: hind limb paralysis or death.
The zosteriform skin lesion and neurological scores for each animal were combined to produce a composite score. The mean composite score was used to represent the disease in each study group. The disease course was measured for 17 days and the extent of the disease was represented by the area under the curve (AUC) of the mean daily composite disease score each day after viral inoculation. The inhibitory activities of tested compounds were calculated using the AUCs.

[1] = Human alphaherpesvirus 1, MRC5, 120 h
[2] = Human alphaherpesvirus 3, read-out: EC50 value (concentration to inhibit 50% of the plaques), plaque count after 3 to 4 days

| Compound | EC50 (HSV-1 (strain KOS); [1]) | EC50 (VZV (strain CaQu); [2]) | Inhibitory activity (%) (HSV-1 strain WT-51) | EC50 (HSV-1 (strain KOS)) | EC50 (VZV (strain CaQu); read-out: EC50 value (concentration to inhibit 50% of the plaques), plaque count after 3 to 4 days) |
| --- | --- | --- | --- | --- | --- |
| Cc1cccc(C)c1N(CC(=O)Nc1ccc(-c2cocn2)cc1)C(=O)C1CCS(=O)(=O)CC1 [Example 1, N-(2,6-dimethylphenyl)-N-(2-{[4-(1,3-oxazol-4-yl)phenyl]amino}-2-oxoethyl)tetrahydro-2H-thiopyran-4-carboxamide 1,1-dioxide] | 75 nM | 75 nM |  |  |  |
| Cc1ccc(N(CC(=O)Nc2ccc(-c3cocn3)cc2)C(=O)C2CCS(=O)(=O)CC2)cc1 [Example 2, N-(4-methylphenyl)-N-(2-{[4-(1,3-oxazol-4-yl)phenyl]amino}-2-oxoethyl)tetrahydro-2H-thiopyran-4-carboxamide 1,1-dioxide] |  |  | 85% |  |  |
| O=C(CN(C(=O)C1CCS(=O)(=O)CC1)c1ccc2c(c1)CCC2)Nc1ccc(-c2cocn2)cc1 [Example 11] |  |  | 92% | 40 nM | 60 nM |
| Cc1cc(N(CC(=O)Nc2ccc(-c3cocn3)cc2)C(=O)C2CCS(=O)(=O)CC2)ccc1Cl [Example 13, N-(4-chloro-3-methylphenyl)-N-(2-{[4-(1,3-oxazol-4-yl)phenyl]amino}-2-oxoethyl)tetrahydro-2H-thiopyran-4-carboxamide 1,1-dioxide] | 6 nM | 33 nM |  |  |  |
| Cc1cccc(N(CC(=O)Nc2ccc(-c3ncon3)cc2)C(=O)C2CCS(=O)(=O)CC2)c1C [Example 24, N-(2,3-dimethylphenyl)-N-(2-{[4-(1,2,4-oxadiazol-3-yl)phenyl]amino}-2-oxoethyl)tetrahydro-2H-thiopyran-4-carboxamide 1,1-dioxide] |  |  | 69% |  |  |
| Cc1cccc(C)c1N(CC(=O)Nc1ccc(-c2ncon2)cc1)C(=O)C1CCS(=O)(=O)CC1 [Example 27, N-(2,6-dimethylphenyl)-N-(2-{[4-(1,2,4-oxadiazol-3-yl)phenyl]amino}-2-oxoethyl)tetrahydro-2H-thiopyran-4-carboxamide 1,1-dioxide] | 60 nM | 100 nM | 86% |  |  |
| Cc1cc(N(CC(=O)Nc2ccc(-c3ncon3)cc2)C(=O)C2CCS(=O)(=O)CC2)ccc1Cl [Example 37, N-(4-chloro-3-methylphenyl)-N-(2-{[4-(1,2,4-oxadiazol-3-yl)phenyl]amino}-2-oxoethyl)tetrahydro-2H-thiopyran-4-carboxamide 1,1-dioxide] | 26 nM | 95 nM |  |  |  |
| Cc1ccc(N(CC(=O)Nc2ccc(-c3ncon3)cc2)C(=O)C2CCS(=O)(=O)CC2)c(C)c1F [Example 39, N-(3-fluoro-2,4-dimethylphenyl)-N-(2-{[4-(1,2,4-oxadiazol-3-yl)phenyl]amino}-2-oxoethyl)tetrahydro-2H-thiopyran-4-carboxamide 1,1-dioxide] | 29 nM | 82 nM |  |  |  |
| Nc1nc2c(ncn2COCCO)c(=O)[nH]1 [acyclovir, reference compound] | 480 nM | 3400 nM |  |  |  |
